Assay [1] has as its target T1, DP receptor (Homo sapiens, UniProt Q13258).
T1 construct: endogenous in cells; host or cells: washed platelets from peripheral blood of a healthy volunteer
T1 sequence (Q13258 1-359): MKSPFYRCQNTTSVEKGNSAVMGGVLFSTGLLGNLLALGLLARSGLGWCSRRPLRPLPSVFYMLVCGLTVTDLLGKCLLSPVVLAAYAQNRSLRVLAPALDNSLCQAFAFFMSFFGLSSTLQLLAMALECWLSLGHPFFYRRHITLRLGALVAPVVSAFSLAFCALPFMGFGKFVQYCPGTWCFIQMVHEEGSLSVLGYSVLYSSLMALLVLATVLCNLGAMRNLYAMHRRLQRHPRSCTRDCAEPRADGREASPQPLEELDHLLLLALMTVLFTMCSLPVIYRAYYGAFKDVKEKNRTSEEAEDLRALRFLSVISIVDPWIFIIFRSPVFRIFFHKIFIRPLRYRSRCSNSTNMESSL
Briefly: Receptor binding assay, [3H]-PGD2, platelet membrane. The conditions noted are these: [3H]-PGD2, human platelet membrane. Here is the method: 2) Receptor Binding Assay
A prepared WP was homogenated and a membrane fraction was collected with high-speed centrifugation. A compound of the present invention or a reference compound A (No. IC-73 in WO 2003/097598) was added to the plate and [^3H]-PGD2 was also added. A platelet membrane, a protein concentration is 2 mg/mL, was added and mixed in the plate, and placed on ice for 2 hours. The reaction solution was transferred to a low protein-adsorptive filter and washed with a wash solution eight times using a cell harvester. After the final washing, water was removed sufficiently, and scintillator was added. DP inhibitory activity was investigated by measuring [^3H] by using Micro Beta.

In assay [2] the target is T1, DP receptor. Description: cAMP assay with washed platelet (DP inhibitory activity in vitro). The class given is cell-based. As to conditions: washed human platelets, 100 nM PGD2, cAMP by HTRF. Here is the method: 1) Preparation of Platelet and a Method of cAMP Assay
30 mL of peripheral blood was collected from a healthy volunteer using a syringe containing one ninth amount of 3.8% sodium citrate. After being centrifuged at 180 g for 10 minutes at room temperature, a supernatant was collected and used as Platelet Rich Plasma (PRP). The resulting PRP was washed with wash buffer and centrifuged three times (Washed Platelet: WP) and platelets were counted by a microcell counter. WP was added to a plate in amount of 1.5×10^8/assay and the plate was treated with 3-isobutyl-1-methylxanthin (IBMX; 0.5 mM) for 5 minutes. A reaction was initiated by adding 100 nM of PGD2 5 min after an addition of a test compound. The reaction was terminated with an addition of 1N hydrochloric acid after 2 minutes and the cells were destructed using 12% triton X-100. An amount of cAMP in the supernatant was assayed by Homogeneous Trangient Fluorescence (HTRF)

The test system of the next assay is OVA asthma model of rat. Briefly: Test using OVA asthma model of rat (airway hyperresponsiveness, infiltration of inflammatory cells, mucus-secretion). As to conditions: po, 72 h. In kind it is in vivo, Brown Norway (BN) Rats. As to the method:
Test Using OVA Asthma Model of Rat
Brown Norway (BN) Rats were sensitized by i.p. administration of 0.1 mg/mL of ovalbumin (OVA) and 1 mg of aluminum hydroxide gel. A solution of 1% OVA was aerosolized by ultrasonic nebulizer (NE-U17) and the rats were subjected to inhalation exposure of the aerosol for 30 minutes in an exposing chamber 12, 19, 26 and 33 days after the sensitization. One hour before the 4th exposure of the antigen, compounds of the present invention were administered in a dose of 10 mg/kg p.o. once a day for three days consecutively. In a control group, 0.5% of methyl cellulose was administered in place of the compound of the present invention.
Under pentobarbital anesthesia (80 mg/kg, i.p.), acetylcholine (3.9, 7.8, 15.6, 31.3, 62.5, 125, 250 and 500 μg/kg) was injected to jugular vein of the rats successively from a lower dose at intervals of 5 minutes three days after the fourth exposure to the antigen, and immediate contractile reaction of airways (an increase of insufflation pressure) was measured by a modified method of Konnzett & Ririssler. Inhibition rate of airway hyperresponsiveness against the control group was calculated based on area under the curve (AUC) obtained from concentration-response curve of acetylcholine.
After the measurement of increased hyperresponsive airway was completed, bronchoalveoli of the rats were washed with 5 mL of saline three times. Total cell number in the washings was counted by a hemacytometer under light microscope, and inhibition rates of infiltration of inflammatory cells against the control group were calculated. Further, mucin in the airway lavage fluid was measured by ELISA method using jacalin, a mucin-binding lectin, and the inhibition rates of mucus-secretion against the control group were calculated.

Where [3] appears, read: read-out: IC50 (50% DP-inhibitory concentration in the cAMP assay).
[4] abbreviates: BN rats, 10 mg/kg p.o. once a day for three days, mucin in airway lavage fluid by ELISA against control group, read-out: inhibition rate (%) mucus-secretion.
The mark [5] stands for this setting: BN rats, 10 mg/kg p.o. once a day for three days, total cell number in bronchoalveolar washings against control group, read-out: inhibition rate (%) infiltration of inflammatory cells.
The mark [6] stands for this setting: read-out: inhibition rate (%) airway hyperresponsiveness.

Molecules are shown by their SMILES. Read-outs that look alike come from different tables or passages of the source.

Usually Ki stands for a measure of affinity in units of concentration, obtained from inhibition or displacement. Lower therefore signals tighter binding. In turn, `CC(C)Oc1ccc(S(=O)(=O)N2CCN(c3ccc([N+](=O)[O-])c(OCC(=O)O)c3)CC2)cc1` [II-13] displayed a Ki at DP receptor [1] of 810 nM. The IC50 on DP receptor [2] (setting [3]) came to 280 nM. The figures for the inhibition in vivo at 10 mg/kg in the assay with OVA asthma model of rat (setting [4]), in the assay with OVA asthma model of rat (setting [5]) and in the assay on OVA asthma model of rat (setting [6]) were 47%, 46% and 99%, respectively.

As for `CC(C)Oc1ccc(S(=O)(=O)N2CCN(c3cc(F)c(F)c(OCC(=O)O)c3)CC2)cc1` [II-16], on DP receptor [1], the affinity, expressed as Ki, was 870 nM. Besides, the IC50 on DP receptor [2] (setting [3]) was found to be 250 nM. For the same molecule, the inhibition in vivo at 10 mg/kg is 76% with OVA asthma model of rat (setting [4]), 67% in the assay on OVA asthma model of rat (setting [5]) and 131% with OVA asthma model of rat (setting [6]).

As to `CC(C)Oc1ccc(S(=O)(=O)N2CCN(c3cc(Br)cc(OCC(=O)O)c3)CC2)cc1` [II-17], on DP receptor [1], the Ki is 570 nM. Besides, the IC50 at DP receptor [2] (setting [3]) is 230 nM. Also, the inhibition in vivo at 10 mg/kg worked out at 49% in the assay on OVA asthma model of rat (setting [4]), 53% with OVA asthma model of rat (setting [5]) and 89% in the assay with OVA asthma model of rat (setting [6]).

In the case of `CC(C)Oc1ccc(S(=O)(=O)N2CCN(c3cc(OCC(=O)O)cc(C(F)(F)F)c3)CC2)cc1` [II-19], the Ki at DP receptor [1] came out at 2000 nM. Besides, the IC50 at DP receptor [2] (setting [3]) was determined as 1100 nM. The inhibition in vivo at 10 mg/kg in the assay with OVA asthma model of rat (setting [4]) came out at 59%; in the assay on OVA asthma model of rat (setting [5]) it was 51%; with OVA asthma model of rat (setting [6]), 54%.

The molecule `CC(C)Oc1ccc(S(=O)(=O)N2CCN(c3ccc(NC(=O)c4ccco4)c(OCC(=O)O)c3)CC2)cc1` [II-24] showed an inhibition constant Ki on DP receptor [1] of 1700 nM. For the same molecule, the IC50 at DP receptor [2] (setting [3]) was 510 nM. Moreover, the results for the inhibition in vivo at 10 mg/kg in the assay with OVA asthma model of rat (setting [4]), in the assay with OVA asthma model of rat (setting [5]) and in the assay on OVA asthma model of rat (setting [6]) were 89%, 67% and 77%, respectively.

Consider `CC(C)Oc1ccc(S(=O)(=O)N2CCN(c3cc(Cl)cc(OCC(=O)O)c3)CC2)cc1` [II-26], for which affinity at DP receptor [1] was put at a Ki of 630 nM. On DP receptor [2] (setting [3]), the IC50 stood at 430 nM. In addition, the values for the inhibition in vivo at 10 mg/kg in the assay with OVA asthma model of rat (setting [4]), in the assay on OVA asthma model of rat (setting [5]) and with OVA asthma model of rat (setting [6]) were 121%, 37% and 97%, respectively.

On DP receptor [1], `CC(C)Oc1ccc(S(=O)(=O)N2CCN(c3ccc(Cl)c(OCC(=O)O)c3)CC2)cn1` [II-27] came in with an inhibitory constant (Ki) of 1400 nM. Moreover, at DP receptor [2] (setting [3]), the IC50 was found to be 1000 nM. The inhibition in vivo at 10 mg/kg in the assay with OVA asthma model of rat (setting [4]) is 118%; with OVA asthma model of rat (setting [5]) it was 49%; in the assay on OVA asthma model of rat (setting [6]), 49%.

For the molecule `CC[C@@H](C)Oc1ccc(S(=O)(=O)N2CCN(c3ccc(Cl)c(OCC(=O)O)c3)CC2)cc1` [II-29], the Ki on DP receptor [1] came to 740 nM. For the same molecule, the IC50 on DP receptor [2] (setting [3]) stood at 380 nM. Moreover, the inhibition in vivo at 10 mg/kg was found to be 110% in the assay with OVA asthma model of rat (setting [4]), 60% in the assay with OVA asthma model of rat (setting [5]) and 89% in the assay on OVA asthma model of rat (setting [6]).

Consider `CC(C)Oc1ccc(S(=O)(=O)N2CCN(c3ccc(Br)c(OCC(=O)O)c3)CC2)cc1` [II-33], for which, at DP receptor [1], the inhibition constant Ki worked out at 1900 nM. For the same molecule, at DP receptor [2] (setting [3]), the IC50 was determined as 300 nM. Further, the inhibition in vivo at 10 mg/kg with OVA asthma model of rat (setting [4]) is 76%; in the assay on OVA asthma model of rat (setting [5]), 57%; in the assay with OVA asthma model of rat (setting [6]), 72%.

Turning to `CC(C)Sc1ccc(S(=O)(=O)N2CCN(c3ccc(Cl)c(OCC(=O)O)c3)CC2)cc1` [II-35], at DP receptor [1], affinity was put at a Ki of 3100 nM. In addition, the IC50 on DP receptor [2] (setting [3]) amounted to 470 nM. Further, the inhibition in vivo at 10 mg/kg in the assay with OVA asthma model of rat (setting [4]) came to 84%; in the assay with OVA asthma model of rat (setting [5]) it was 60%; in the assay with OVA asthma model of rat (setting [6]), 88%.

`CC(C)Oc1ccc(S(=O)(=O)N2CCN(c3cc(OCC(=O)O)cc(-c4ccoc4)c3)CC2)cc1` [II-38]: the affinity at DP receptor [1] corresponds to a Ki of 250 nM. The IC50 on DP receptor [2] (setting [3]) was determined as 650 nM. The inhibition in vivo at 10 mg/kg in the assay on OVA asthma model of rat (setting [4]) came to 71%; with OVA asthma model of rat (setting [5]) it was 69%; in the assay on OVA asthma model of rat (setting [6]), 39%.

Molecule `CC(C)Oc1ccc(S(=O)(=O)N2CCN(c3ccc(Cl)c(OCC(=O)O)c3)CC2C)cc1` (stereo not shown) [II-43] came in with a Ki on DP receptor [1] of 2300 nM. The IC50 on DP receptor [2] (setting [3]) stood at 740 nM. In addition, the inhibition in vivo at 10 mg/kg came out at 98% in the assay on OVA asthma model of rat (setting [4]), 33% in the assay on OVA asthma model of rat (setting [5]) and 56% in the assay with OVA asthma model of rat (setting [6]).

Molecule `CC(C)Oc1ccc(S(=O)(=O)N2CCN(c3ccc(-c4ccoc4)c(OCC(=O)O)c3)CC2)cc1` [II-54] returned a Ki on DP receptor [1] of 270 nM. The molecule further returned an IC50 against DP receptor [2] of 420 nM. Besides, the inhibition in vivo at 10 mg/kg in the assay with OVA asthma model of rat (setting [4]) stood at 106%; in the assay on OVA asthma model of rat (setting [5]), 39%; in the assay on OVA asthma model of rat (setting [6]) it was 119%.

In the case of `CC(C)Oc1ccc(S(=O)(=O)N2CCN(c3ccc(C#N)c(OCC(=O)O)c3)CC2)cc1` [II-80], the affinity on DP receptor [1], expressed as Ki, was 230 nM. Also, on DP receptor [2] (setting [3]), the IC50 was found to be 200 nM. In addition, the inhibition in vivo at 10 mg/kg was found to be 82% in the assay on OVA asthma model of rat (setting [4]), 57% in the assay on OVA asthma model of rat (setting [5]) and 39% in the assay on OVA asthma model of rat (setting [6]).

With `CC(C)Oc1ccc(S(=O)(=O)N2CCN(c3ccc(-c4cnco4)c(OCC(=O)O)c3)CC2)cc1` [II-84], on DP receptor [1], the affinity corresponds to a Ki of 330 nM. Also, the IC50 on DP receptor [2] is 180 nM. Besides, the inhibition in vivo at 10 mg/kg in the assay with OVA asthma model of rat (setting [4]) amounted to 56%; in the assay on OVA asthma model of rat (setting [5]) it was 54%; with OVA asthma model of rat (setting [6]), 82%.

`CC(C)Oc1ccc(S(=O)(=O)N2CCN(c3ccc(-c4nccs4)c(OCC(=O)O)c3)CC2)cc1` [II-92] registered a Ki on DP receptor [1] of 580 nM. Further, at DP receptor [2] (setting [3]), the IC50 came out at 360 nM. Further, the figures for the inhibition in vivo at 10 mg/kg in the assay on OVA asthma model of rat (setting [4]), in the assay on OVA asthma model of rat (setting [5]) and in the assay with OVA asthma model of rat (setting [6]) were 44%, 46% and 53%, respectively.

`CC(C)Oc1ccc(S(=O)(=O)N2CCN(c3ccc(-c4cocn4)c(OCC(=O)O)c3)CC2)cc1` [II-96] had a Ki at DP receptor [1] of 330 nM. On DP receptor [2] (setting [3]), the IC50 was found to be 290 nM. In addition, the inhibition in vivo at 10 mg/kg was 52% in the assay with OVA asthma model of rat (setting [4]), 46% with OVA asthma model of rat (setting [5]) and 105% with OVA asthma model of rat (setting [6]).

The record behind these values is patent publication US9440938B2, “Sulfonamide derivative having PGD2 receptor antagonistic activity” (SHIONOGI & CO., LTD., priority 2005, dated 2016).
